From patent US8148100B2, “Mina53 assays” (ISIS Innovation Limited, priority 2005, dated 2012)

Legend:
[1] = target: T1, Mina53(A26-V465) (Homo sapiens, UniProt Q8IUF8, A386T); assay: [14C] labelled 2-OG decarboxylation assay (uncoupled 2-OG turnover, 14CO2 release); type: biochemical; details: for inhibition of uncoupled 2-OG turnover by small molecules (in words): final concentration of 1 mM; for 2OG turnover: truncated Mina53 A26-V465 with Fe(II) and ascorbate, 16 nm 2-OG initially present, 37° C., 20 minutes
T1 construct: A N-terminal truncation of Mina53 A26-V465 cloned into pNIC28-Bsa4 was supplied by the Structural Genomics Consortium Oxford; His-tag (polyhistidine, TEV-cleavable, from pNIC28-Bsa4) (N, cleaved yes); made in house; host or cells: E. coli BL21(DE3)
Protocol: Once purified full-length His-Mina53 had been obtained it was tested for 2-OG oxygenase activity. A standard assay for this family of enzymes involves the use of [^14C] labelled 2-OG co-substrate. Upon reaction, the ^14C label is released as 14CO2 gas (old FIG. 2).
The ^14CO2 gas is then trapped using a strong base and quantified by liquid scintillation. The level of uncoupled turnover of 2-OG oxygenases can be increased by the use of a reducing agent, e.g. ascorbate. Many other assays for 2-OG oxygenases are well known, e.g. those based on oxygen consumption, succinate production or oxidation of the “prime substrate” (McNeill et al (2005) Anal. Biochem. 336, 125-31; Sabourin & Bieber (1982) J. Biol. Chem. 257, 7460-7; and Cunliffe et al. (1986) Biochem. J. 240, 617-9).
As noted above, many of the enzymes in the family catalyse the decarboxylation of 2-OG in the absence of a suitable prime substrate, albeit at a reduced rate. This activity is sometimes termed as uncoupled turnover. The protocol used for the 2-OG assay decarboxylation is based on the method used to measure [^14CO2] release by α-ketoisocaproate oxygenase (Sabourin & Bieber (1982) J. Biol. Chem. 257, 7460-7). Standard assay conditions consisted of a total volume of 100 μl, 50 mM Tris-HCl pH 7.5, 4 mM ascorbate, 160 μM 2OG (5% 1-[^14C]), 80 μM FeSO4.6H2O, 0.48 mg·ml^−1 catalase, 10 μM Mina53. Four stocks were made: (a) Mina53 (b) Fe(II) (c) ascorbate and, (d) all other reagents. Assays were started by mixing components (a) to (d). A tube containing 200 μl hyamine hydroxide was added and the vial sealed. The assays were incubated at 37° C. for 20 minutes then quenched with methanol (200 μl). Reaction tubes were then left on ice for 30 mins to collect [^14CO2] gas, before the hyamine hydroxide was removed and treated with scintillant solution for counting (Beckman, LS6500). Assays were performed in triplicate unless otherwise stated. When potential small molecule inhibitors were added, they were mixed to stock (d) to a final concentration of 1 mM in Tris 50 mM, pH 7.9 buffer. To investigate inhibition of Mina53 by metals other than Fe(II), NiCl2 and ZnCl2 were added separately to the assay mixture to a final concentration of 80 μM.
Using this [^14C] labelled 2-OG assay (16 nm of 2-OG was initially present in the assay mixture), the level of uncoupled turnover for Mina53 was measured under standard catalytic conditions (16 nm of 2-OG was initially present in the assay mixture), in the absence of Fe(II), in the absence of ascorbate and in the presence on N-oxalylglycine (NOG) a ubiquitous inhibitor for the 2-OG dependent non-haem Fe(II) oxygenases^16.

[2] = target: T1, Mina53(A26-V465); assay: as above; type: biochemical; details: His-Mina53, absence of prime substrate
[3] = final assay concentration of 80 μM

T1 sequence (Q8IUF8 26-465 A386T): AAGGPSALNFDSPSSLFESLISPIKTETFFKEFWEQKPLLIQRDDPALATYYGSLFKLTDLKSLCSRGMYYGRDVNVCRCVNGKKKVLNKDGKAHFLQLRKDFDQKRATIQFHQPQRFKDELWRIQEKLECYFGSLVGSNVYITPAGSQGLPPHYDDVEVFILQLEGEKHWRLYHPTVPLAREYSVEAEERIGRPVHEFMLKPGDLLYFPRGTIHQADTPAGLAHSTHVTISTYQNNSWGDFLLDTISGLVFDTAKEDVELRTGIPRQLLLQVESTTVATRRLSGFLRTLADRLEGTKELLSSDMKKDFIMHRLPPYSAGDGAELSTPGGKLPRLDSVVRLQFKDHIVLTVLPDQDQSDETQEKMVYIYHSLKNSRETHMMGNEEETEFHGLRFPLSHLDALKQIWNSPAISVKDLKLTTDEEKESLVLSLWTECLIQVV

Q: Which “inhibition of uncoupled 2-OG turnover by small molecules (in words)” value (“inhibition of uncoupled 2-OG turnover” for short) [1] does the source give for `O=C(O)CNC(=O)c1nc(Cl)c2ccccc2c1O` [BB231] here?
A: Its value is “did not significantly reduce it”.

Q: And the 2OG turnover ([1]; small molecule added at 1 mM)?
A: The 2OG turnover was 3.18 ± 0.03 nm.

Q: With `O=C(O)C(=O)NC(Cc1ccccc1)C(=O)O` [NOFD, N-oxalyl D-phenylalaninie] as the compound, how does the “inhibition of uncoupled 2-OG turnover” value [1] read?
A: Its value is “did not significantly reduce it”.

Q: What about the 2OG turnover ([1]; small molecule added at 1 mM) of the same compound?
A: The 2OG turnover was 3.86 ± 0.05 nm.

Q: Which “decarboxylation of 2-OG by His-Mina53 in the presence of inhibitor (in words)” value [2] does the source give for `O=C(O)CNC(=O)C(=O)O` [NOG, N-oxalylglycine] here?
A: Its value is “inhibited”.

Q: What about the “inhibition of uncoupled 2-OG turnover” value [1] of the same compound?
A: The value was “inhibit uncoupled 2-OG turnover”.

Q: What about the 2OG turnover ([1]; small molecule added at 1 mM) of the same compound?
A: The 2OG turnover was 0.47 ± 0.12 nm.

Q: `[Cl][Ni][Cl]` [NiCl2] was tested. Which “inhibition of Mina53 mediated oxidation of 2OG by metals other than Fe(II) (in words)” value [1, 3] did it give?
A: Its value is “inhibit 2OG turnover”.

Q: And the 2OG turnover ([1]; metal salt added at 80 μM)?
A: The 2OG turnover was 2 ± 0.23 nm.

Q: For `CCC(=O)C1C(=O)CC(C(=O)O)CC1=O` (stereo not shown) [Prohexadione, prohexadione], which “inhibition of uncoupled 2-OG turnover” value [1] is on record?
A: The value was “inhibit uncoupled 2-OG turnover”.

Q: What about the 2OG turnover ([1]; small molecule added at 1 mM) of the same compound?
A: The 2OG turnover was 0.17 ± 0.12 nm.

Q: Which “inhibition of Mina53 mediated oxidation of 2OG by metals other than Fe(II) (in words)” value [1, 3] does the source give for `[Cl-].[Cl-].[Zn+2]` [ZnCl2] here?
A: Its value is “inhibit 2OG turnover”.

Q: What about the “relative inhibitory potency, Ni versus Zn (in words)” value [1, 3] of the same compound?
A: The value was “more potent inhibitor”.

Q: What about the 2OG turnover ([1]; metal salt added at 80 μM) of the same compound?
A: The 2OG turnover was 0.93 ± 0.17 nm.

Q: For fumarate, which “inhibition of uncoupled 2-OG turnover” value [1] is on record?
A: The value was “inhibit uncoupled 2-OG turnover”.

Q: What about the 2OG turnover ([1]; small molecule added at 1 mM) of the same compound?
A: The 2OG turnover was 0.58 ± 0.09 nm.
